According to patent US11400089B2, “Multikinase inhibitors and uses in reproductive and digestive tract fibrosis” (AIVIVA BIOPHARMA, INC., priority 2017, dated 2022):
Where a name gives a salt, the structure may show the parent alone.

Key:
[1] = tested on: testosterone and phenylephrine induced benign prostate hyperplasia; assay: testosterone and phenylephrine induced benign prostate hyperplasia in rats (Example 1); assay type: in vivo, Male Wistar rats; details: for epithelial hyperplasia score, representative image of dorsolateral prostate: FIG. 2; for mean dorsolateral prostate hyperplasia scores compared to vehicle treatment: induced rats, intra-prostate days 15 and 29, axitinib, sorafenib, FIG. 3
Protocol: Wistar and Sprague-Dawley strains of rats are susceptible to developing benign prostatic hyperplasia after treatment with exogenous testosterone and can serve as a model of hyperplasia induced by endogenous hormones, i.e., BPH in males and uterine fibroids (UF) in females. A study was conducted to determine the effects of test compounds and vehicle on testosterone and phenylephrine induced benign prostate hyperplasia in rats. Male Wistar rats were induced with testosterone (2 mg/kg) plus phenylephrine (5 mg/kg) administered daily by subcutaneous injection on days 1 through 28. Vehicle or the multikinase test compounds, axitinib (1%), sorafenib (1%), pirfenidone (2.5%) and riociguat (1%), were administered by intra-prostate injection (0.2 mL) on days 15 and 29. Animals were euthanized on day 42. Body weights were determined. Prostate glands were harvested and weighed.
Prostate weight/100 g body weight was determined for each treatment group (FIG. 1). […] Rather, only multikinase inhibitors with a certain inhibitory spectrum would work.
At necropsy, the dorsolateral and ventral lobes of the prostate were separated and cut into halves. The left halves were fixed in 10% neutral buffered formalin, sectioned, and stained with Hematoxylin and Eosin (H&E). Glandular hyperplasia was recognized as an increase in epithelial cells within normal appearing gland profiles, reflected by stratification of epithelial cells and increased presence of epithelial tufting and papillary projections (FIG. 2). Stromal changes were examined microscopically. These changes included inflammation and tissue fibroplasia. Each section was given a severity score ranging from 0 (not present) through 5 (severe).

[2] = tested on: full-thickness dermal wounds; assay: full-thickness dermal wounds in rabbit ear, histopathology (Example 5); assay type: in vivo, New Zealand White rabbits; design: average total score of test wounds lower than untreated/control wounds by / Neovascularization (histopathology score, treated mean) / Fibrosis/Collagen (histopathology score, treated mean) / Reepithelialization (histopathology score, treated mean) / Total Score (histopathology, treated mean): scale not given here; details: for Fibrosis/Collagen (histopathology score, treated mean) / Neovascularization (histopathology score, treated mean) / Reepithelialization (histopathology score, treated mean) / Total Score (histopathology, treated mean): 1% intradermal dosing days 15 and 29, Day 42, rabbit ear wound
Protocol: Test compounds were examined in full-thickness dermal wounds in rabbits. Seven male New Zealand White rabbits, ranging in body weight from 3.03 to 3.40 kg were used in this study. Four wounds were placed on the ventral surface of both ears using an 8 mm skin punch biopsy. Axitinib (1.0%), nintedanib (1.0%), lenvatinib (1.0%), sorafenib (1.0%) and sunitinib (1.0%) were administered by intradermal or intralesional injection on days 15 and 29 following surgery. Animals were euthanized on Day 42 and trauma sites were harvested and divided in half. One half was preserved in formalin for histological examination and the other half frozen for TGF beta analysis. Tissue H&E staining was evaluated semi-quantitatively for inflammation and neovascularization. Tissue fibrosis and collagen organization were evaluated by Mason's trichrome staining. Scores for four intradermal sites receiving test articles were averaged for each rabbit. Most scar tissues were composed of neovascularization, fibroblast hyperplasia, collagen disorganization and re-epithelialization.

[3] = tested on: testosterone and phenylephrine induced benign prostate hyperplasia; assay: testosterone and phenylephrine induced benign prostate hyperplasia in rats (Example 3); assay type: in vivo, Male Wistar rats; details: for epithelial (glandular) hyperplasia score, dorsolateral prostate, representative image: grade 0 (not present) to 5 (severe), FIG. 4
Protocol: This study was conducted to determine the effects of multikinase inhibitors and vehicle on testosterone and phenylephrine induced benign prostate hyperplasia in rats. Male Wistar rats were induced with testosterone (2 mg/kg) plus phenylephrine (5 mg/kg) administered daily by subcutaneous injection on days 5 through 32. Vehicle or test compounds (all 1% w/v), nintedanib, sunitinib or lenvatinib and doxazosin mesylate, were administered by intra-prostate injection (0.4 ml) in dorsolateral and ventral lobes on days 1 and 18. Animals were euthanized on day 32.
At necropsy, the ventral and dorsolateral lobes of the prostate were separated and then cut into halves. The left halves were fixed in 10% neutral buffered formalin, sectioned, and stained with Hematoxylin and Eosin (H&E). Histological changes in these sections were scored. Epithelial hyperplasia was recognized as an increase in epithelial cells within normal-appearing gland profiles, primarily reflected by stratification of epithelial cells and increased presence of epithelial tufting and papillary projections. A severity grade of 0 (not present) through 5 (severe) was assigned to each sample.

[4] = TE+PE induced rats, axitinib 1%, sorafenib 1%, pirfenidone 2.5%, severity score 0 (not present) to 5 (severe), induced vehicle group score=2
[5] = TE+PE induced rats, intra-prostate 0.4 ml days 1 and 18, day 32, induced vehicle score=4

Row | SMILES | epithelial hyperplasia score, representative image of dorsolateral prostate [1, 4] | Fibrosis/Collagen (histopathology score, treated mean) [2] | Neovascularization (histopathology score, treated mean) [2] | Reepithelialization (histopathology score, treated mean) [2] | Total Score (histopathology, treated mean) [2] | epithelial (glandular) hyperplasia score, dorsolateral prostate, representative image [3, 5] | mean dorsolateral prostate hyperplasia scores compared to vehicle treatment ([1]; riociguat 1%, pirfenidone 2.5%) | further results
1 | CNC(=O)c1ccccc1Sc1ccc2c(/C=C/c3ccccn3)n[nH]c2c1 [axitinib] | 1 | 3.3 | 1 | 0.3 | 4.6 | – | – | average total score of test wounds lower than untreated/control wounds by ([2]; 1% intradermal, difference treated vs control): 1.4
2 | COc1cc2nc(N3CCN(C(=O)C4COc5ccccc5O4)CC3)nc(N)c2cc1OC (stereo not shown) [doxazosin, doxazosin mesylate] | – | – | – | – | – | 3 | – | epithelial (glandular) hyperplasia score, ventral prostate, representative image ([3]; TE+PE induced rats, intra-prostate 0.4 ml days 1 and 18, day 32, grade 0 to 5, induced vehicle score=4, FIG. 5): 3
3 | Cc1ccc(=O)n(-c2ccccc2)c1 [pirfenidone] | 1 | – | – | – | – | – | demonstrated a decrease in hyperplasia scores | –
4 | COC(=O)N(C)c1c(N)nc(-c2nn(Cc3ccccc3F)c3ncccc23)nc1N [riociguat] | – | – | – | – | – | – | demonstrated a decrease in hyperplasia scores | epithelial hyperplasia score, representative image of dorsolateral prostate ([1]; TE induced rat, riociguat 1%, severity score 0 to 5, TE-induced group 6 score=2): 1; mean prostate weight (prostate weight/100 g body weight) ([1]; TE induced rats, riociguat 1% intra-prostate days 15 and 29, day 42, compared to group 6, FIG. 1): resulted in a reduction in the mean prostate weight
5 | CCN(CC)CCNC(=O)c1c(C)[nH]c(/C=C2\C(=O)Nc3ccc(F)cc32)c1C [sunitinib] | – | 3.7 | 4 | 0 | 7.7 | 3 | – | epithelial (glandular) hyperplasia score, ventral prostate, representative image ([3]; 768 h): 3
